Experiments:
Experiment in all cases: SSM electrophysiology, kobs of pre-steady state current vs concentration
Format in all cases: biochemical
DgoT [1] = biological target: T1, DgoT (Escherichia coli, UniProt A0A0H2Z574)
T1 sequence (A0A0H2Z574 1-445): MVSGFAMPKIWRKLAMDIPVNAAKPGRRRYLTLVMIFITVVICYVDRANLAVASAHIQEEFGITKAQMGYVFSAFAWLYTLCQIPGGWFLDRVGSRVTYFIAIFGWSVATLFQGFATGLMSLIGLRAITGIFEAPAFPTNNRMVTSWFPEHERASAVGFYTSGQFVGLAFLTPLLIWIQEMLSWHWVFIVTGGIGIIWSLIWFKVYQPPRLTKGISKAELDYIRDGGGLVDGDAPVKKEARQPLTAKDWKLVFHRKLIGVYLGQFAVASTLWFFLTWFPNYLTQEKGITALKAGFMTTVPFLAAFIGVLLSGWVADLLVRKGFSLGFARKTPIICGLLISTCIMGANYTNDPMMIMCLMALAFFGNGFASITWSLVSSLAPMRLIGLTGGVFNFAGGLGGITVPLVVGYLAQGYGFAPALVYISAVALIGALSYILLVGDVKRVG
Excerpt: (§1) SSM electrophysiology, kobs of pre-steady state current vs concentration on DgoT

DgoT [2] = biological target: T2, DgoT (Escherichia coli, UniProt A0A0H2Z574, D46N)
T2 sequence (A0A0H2Z574 1-445 D46N): T1 sequence (A0A0H2Z574 1-445)
Excerpt: as §1

DgoT [3] = biological target: T3, DgoT (Escherichia coli, UniProt A0A0H2Z574, E133Q)
T3 sequence (A0A0H2Z574 1-445 E133Q): T1 sequence (A0A0H2Z574 1-445)
Excerpt: as §1

DgoT [4] = biological target: T4, DgoT (Escherichia coli, UniProt A0A0H2Z574, R126Q)
T4 sequence (A0A0H2Z574 1-445 R126Q): T1 sequence (A0A0H2Z574 1-445)
Excerpt: as §1

Compound: O=C(O)[C@H](O)[C@@H](O)[C@@H](O)[C@H](O)CO [D-galactonate]
- Kd (DgoT [1]): 15.1 mM
- Kd (DgoT [2]): 10.9 mM
- Kd (DgoT [3]): 15.3 mM
- Kd (DgoT [4]): 22 mM
